Measurements reported in ChEMBL document CHEMBL4251651, “Synthesis and biological evaluation of 4-amino-5-cinnamoylthiazoles as chalcone-like anticancer agents” (Eur J Med Chem, 2018).
Values after ≈ are worked out from the molar mass of the structure shown.

What was measured:
MCF7 = test: Antiproliferative activity against human MCF7 cells after 48 hrs by MTT assay; format: functional, cell-based; conditions: MCF7, 48 h
HepG2 [1] = test: Antiproliferative activity against human HepG2 cells after 48 hrs by MTT assay; format: functional, cell-based; conditions: HepG2, 48 h
SW480 = test: Antiproliferative activity against human SW480 cells after 48 hrs by MTT assay; format: functional, cell-based; conditions: SW480, 48 h
HepG2 [2] = test: Induction of apoptosis in human HepG2 cells assessed as necrotic cells at IC50 after 48 hrs by Annexin V-FITC/propidium iodide staining based flow cytometry (reference value: 7.77%); format: functional
HepG2 [3] = test: Induction of apoptosis in human HepG2 cells assessed as late apoptotic cells at IC50 after 48 hrs by Annexin V-FITC/propidium iodide staining based flow cytometry (reference value: 18.1%); format: functional
HepG2 [4] = test: Induction of apoptosis in human HepG2 cells assessed as early apoptotic cells at IC50 after 48 hrs by Annexin V-FITC/propidium iodide staining based flow cytometry (reference value: 11.7%); format: functional
HepG2 [5] = test: Induction of apoptosis in human HepG2 cells assessed as viable cells at IC50 after 48 hrs by Annexin V-FITC/propidium iodide staining based flow cytometry (reference value: 62.4%); format: functional
HepG2 [6] = test: Induction of apoptosis in human HepG2 cells assessed as necrotic cells at 1.2 times IC50 after 48 hrs by Annexin V-FITC/propidium iodide staining based flow cytometry (reference value: 7.77%); format: functional
HepG2 [7] = test: Induction of apoptosis in human HepG2 cells assessed as late apoptotic cells at 1.2 times IC50 after 48 hrs by Annexin V-FITC/propidium iodide staining based flow cytometry (reference value: 18.1%); format: functional
HepG2 [8] = test: Induction of apoptosis in human HepG2 cells assessed as early apoptotic cells at 1.2 times IC50 after 48 hrs by Annexin V-FITC/propidium iodide staining based flow cytometry (reference value: 11.7%); format: functional
HepG2 [9] = test: Induction of apoptosis in human HepG2 cells assessed as viable cells at 1.2 times IC50 after 48 hrs by Annexin V-FITC/propidium iodide staining based flow cytometry (reference value: 62.4%); format: functional
HepG2 [10] = test: Cell cycle arrest in human HepG2 cells assessed as accumulation at G1 phase at IC50 after 48 hrs by propidium iodide staining-based flow cytometry (reference value: 29.83%); format: functional
HepG2 [11] = test: Cell cycle arrest in human HepG2 cells assessed as accumulation at G1 phase at 1.2 times IC50 after 48 hrs by propidium iodide staining-based flow cytometry (reference value: 29.83%); format: functional
HepG2 [12] = test: Cell cycle arrest in human HepG2 cells assessed as accumulation at G2 phase at IC50 after 48 hrs by propidium iodide staining-based flow cytometry (reference value: 38.82%); format: functional
HepG2 [13] = test: Cell cycle arrest in human HepG2 cells assessed as accumulation at G2 phase at 1.2 times IC50 after 48 hrs by propidium iodide staining-based flow cytometry (reference value: 38.82%); format: functional
HepG2 [14] = test: Cell cycle arrest in human HepG2 cells assessed as accumulation at S phase at IC50 after 48 hrs by propidium iodide staining-based flow cytometry (reference value: 51.72%); format: functional
HepG2 [15] = test: Cell cycle arrest in human HepG2 cells assessed as accumulation at S phase at 1.2 times IC50 after 48 hrs by propidium iodide staining-based flow cytometry (reference value: 51.72%); format: functional

Row | Structure (SMILES) | IC50 (MCF7) | IC50 (HepG2 [1]) | IC50 (SW480) | also measured
1 | Nc1nc(N2CCOCC2)sc1C(=O)/C=C/c1ccc(Cl)cc1Cl | 18.6 µg/mL (≈ 48.4 µM) | 12.8 µg/mL (≈ 33.3 µM) | 33.2 µg/mL (≈ 86.4 µM) | 
2 | Nc1nc(N2CCOCC2)sc1C(=O)/C=C/c1ccc([N+](=O)[O-])cc1 | 40 µg/mL (≈ 111 µM) | 27.6 µg/mL (≈ 76.6 µM) | 43.3 µg/mL (≈ 120 µM) | 
3 | Nc1nc(N2CCOCC2)sc1C(=O)/C=C/c1ccc(Cl)cc1 | > 50 µg/mL | 35.8 µg/mL (≈ 102 µM) | 33.4 µg/mL (≈ 95.5 µM) | 
4 | Nc1nc(N2CCCCC2)sc1C(=O)/C=C/c1ccc([N+](=O)[O-])cc1 | 14.6 µg/mL (≈ 40.7 µM) | 15.4 µg/mL (≈ 43 µM) | 25.6 µg/mL (≈ 71.4 µM) | Activity (HepG2 [2]): 24.2%; Activity (HepG2 [3]): 27.7%; Activity (HepG2 [4]): 2.1%; Activity (HepG2 [5]): 46%; Activity (HepG2 [6]): 24.2%; Activity (HepG2 [7]): 47.1%; Activity (HepG2 [8]): 2.53%; Activity (HepG2 [9]): 26.1%; Activity (HepG2 [10]): 47.1%; Activity (HepG2 [11]): 54.18%; Activity (HepG2 [12]): 30.17%; Activity (HepG2 [13]): 25.23%; Activity (HepG2 [14]): 27.92%; Activity (HepG2 [15]): 33.47%
5 | Nc1nc(N2CCCC2)sc1C(=O)/C=C/c1ccc(Cl)cc1Cl | 12.6 µg/mL (≈ 34.2 µM) | 10.6 µg/mL (≈ 28.8 µM) | 18.4 µg/mL (≈ 50 µM) | Activity (HepG2 [2]): 40.8%; Activity (HepG2 [3]): 13.2%; Activity (HepG2 [4]): 1.43%; Activity (HepG2 [5]): 44.6%; Activity (HepG2 [6]): 24.4%; Activity (HepG2 [7]): 44.3%; Activity (HepG2 [8]): 7.12%; Activity (HepG2 [9]): 24.2%; Activity (HepG2 [10]): 22.09%; Activity (HepG2 [11]): 27.04%; Activity (HepG2 [12]): 64.84%; Activity (HepG2 [13]): 68.37%; Activity (HepG2 [14]): 14.64%; Activity (HepG2 [15]): 16.34%
6 | Nc1nc(N2CCCCC2)sc1C(=O)/C=C/c1ccc(Cl)cc1Cl | 25.5 µg/mL (≈ 66.7 µM) | 22.9 µg/mL (≈ 59.9 µM) | 36.8 µg/mL (≈ 96.3 µM) | 
7 | Nc1nc(N2CCOCC2)sc1C(=O)/C=C/c1ccc(Br)cc1 | > 50 µg/mL | > 50 µg/mL | 32.7 µg/mL (≈ 82.9 µM) | 
8 | Nc1nc(N2CCCC2)sc1C(=O)/C=C/c1ccc([N+](=O)[O-])cc1 | 26.3 µg/mL (≈ 76.4 µM) | 23.5 µg/mL (≈ 68.2 µM) | 22.4 µg/mL (≈ 65 µM) | 
9 | COc1cc([C@@H]2c3cc4c(cc3[C@@H](O[C@@H]3O[C@@H]5CO[C@@H](C)O[C@H]5[C@H](O)[C@H]3O)[C@H]3COC(=O)[C@H]23)OCO4)cc(OC)c1O [ETOPOSIDE] |  |  |  | Activity (HepG2 [2]): 35.5%; Activity (HepG2 [3]): 24.7%; Activity (HepG2 [4]): 2.59%; Activity (HepG2 [5]): 37.1%

More lines, main results first:

Row | IC50 (MCF7) | IC50 (HepG2 [1]) | IC50 (SW480) | Structure (SMILES) | also measured
10 | 25.6 µg/mL (≈ 65.3 µM) | 17.4 µg/mL (≈ 44.4 µM) | 31.6 µg/mL (≈ 80.5 µM) | Nc1nc(N2CCCCC2)sc1C(=O)/C=C/c1ccc(Br)cc1 | 
11 | 19.5 µg/mL (≈ 56.1 µM) | 12 µg/mL (≈ 34.5 µM) | 29.4 µg/mL (≈ 84.5 µM) | Nc1nc(N2CCCCC2)sc1C(=O)/C=C/c1ccc(Cl)cc1 | Activity (HepG2 [2]): 18.5%; Activity (HepG2 [3]): 34.4%; Activity (HepG2 [4]): 2.84%; Activity (HepG2 [5]): 44.3%; Activity (HepG2 [6]): 17.2%; Activity (HepG2 [7]): 34.7%; Activity (HepG2 [8]): 3.31%; Activity (HepG2 [9]): 44.8%; Activity (HepG2 [10]): 44.47%; Activity (HepG2 [11]): 48.58%; Activity (HepG2 [12]): 27.88%; Activity (HepG2 [13]): 37.65%; Activity (HepG2 [14]): 28.24%; Activity (HepG2 [15]): 18.26%
12 | 24 µg/mL (≈ 71.9 µM) | 27 µg/mL (≈ 80.9 µM) | 19.9 µg/mL (≈ 59.6 µM) | Nc1nc(N2CCCC2)sc1C(=O)/C=C/c1ccc(Cl)cc1 | 
13 | > 50 µg/mL | 35.1 µg/mL (≈ 107 µM) | 17 µg/mL (≈ 51.6 µM) | COc1ccccc1/C=C/C(=O)c1sc(N2CCCC2)nc1N | 
14 | 22.4 µg/mL (≈ 71.5 µM) | 16.6 µg/mL (≈ 53 µM) | 28.1 µg/mL (≈ 89.7 µM) | Nc1nc(N2CCCCC2)sc1C(=O)/C=C/c1ccccc1 | 
15 | 41.3 µg/mL (≈ 109 µM) | 30 µg/mL (≈ 79.3 µM) | 15.8 µg/mL (≈ 41.8 µM) | Nc1nc(N2CCCC2)sc1C(=O)/C=C/c1ccc(Br)cc1 | 
16 | 34.7 µg/mL (≈ 110 µM) | 21.4 µg/mL (≈ 67.9 µM) | 30.5 µg/mL (≈ 96.7 µM) | Nc1nc(N2CCOCC2)sc1C(=O)/C=C/c1ccccc1 | 
17 | 21.7 µg/mL (≈ 72.5 µM) | 29.6 µg/mL (≈ 98.9 µM) | 31.7 µg/mL (≈ 106 µM) | Nc1nc(N2CCCC2)sc1C(=O)/C=C/c1ccccc1 | 
